{"source": "patent US8187320B2", "about": "“Medical implants containing FK506 (tacrolimus)” (Abbott Laboratories Vascular Enterprises Limited, priority 2001, dated 2012)", "key": {"[1]": {"test": "Active agent release from stent grafts and polymer-coated stents in PBS buffer at 37° C.", "format": "physicochemical", "conditions": "type A PTFE stent graft, PBS 37° C.", "experimental": "To analyze the active agent release, a stent was incubated at 37° C. in 10 ml of PBS buffer (stabilized with Na azide) at 37° C. After defined periods of time had elapsed, 2×1 ml of the solution were removed and analyzed. These 2 ml were replaced by fresh PBS buffer (stabilized with Na azide).\nThe tables reflect the total released content of active agent in the solution., ie., the amounts of active agent in the buffer volume removed for the analysis are accumulated with amounts detected in subsequent examples."}, "[2]": {"test_system": "restenosis", "conditions": "in vivo; cited from earlier work"}, "[3]": {"test_system": "neointima formation and foci of inflammation", "test": "Animal study: FK506-loaded ceramic-coated stents implanted into the carotid artery of rabbits", "format": "in vivo, New Zealand rabbits", "conditions": "ceramic-coated stents loaded with 60 μg of FK506; rabbit carotid artery; after 28 days", "experimental": "Stainless steel coronary stents (JOSTENT Flex, 16 mm) were coated with an aluminum oxide ceramic layer. This coating served as carrier of FK506 (as described in Example 5). In this case, the stents were loaded with a total of 60 μg of FK506. In an animal study in rabbits (n=7), these FK506 coated stents and normal stents without coating were implanted into the carotid artery of New Zealand rabbits. The release of FK506 and the effect of FK506 on the growth of the intima and the formation of macrophages and lymphocytes was investigated.\nThe release of FK506 were determined by HPLC determination of the amount of FK506 in the blood of the rabbits after 1 hr, 8 hr, 24 hr and 48 hr. FIG. 6 is a graph showing the release of FK506 over time. The rabbits were sacrificed after 28 days, and the implanted stents were examined. The area of newly grown intima (neointima) within the stent was quantified under the optical microscope, and is reported in FIG. 7. There is a reduction of 53% in the formation of neointima for stents loaded with 60 μg of FK506 compared with bare stents. […] The use of stents with a ceramic coating onto which FK506 is applied thus leads to a distinct reduction in neointima and in foci of inflammation after the implantation."}, "[4]": {"test_system": "smooth muscle cells (SMC)", "test": "Inhibition of proliferation of smooth muscle cell (SMC) cultures", "format": "cell-based"}, "[5]": {"test": "Loading of selected active agents onto stent grafts / polyurethane-coated stents", "format": "physicochemical", "conditions": "type A: stent grafts with PTFE polymer layer immersed in solution of dissolved solids", "from_the_text": "Loading of Selected Active Agents onto Stent Grafts All values are stated in μg."}, "[6]": {"test_system": "neointima formation", "conditions": "animal experiments; cited from earlier work"}, "[7]": {"test_system": "neointima formation", "conditions": "pigs; Heldman 2001; cited from earlier work"}}, "note": "Values joined by “and” are separate entries in the source; they are usually repeats but may differ in a detail not shown here. Identical values can stand only once. Marks after values point to notes of the source that are not given here."}
{"smiles": "CC[C@]1(O)C[C@@H]2CN(CCc3c([nH]c4ccccc34)[C@@](C(=O)OC)(c3cc4c(cc3OC)N(C)[C@H]3[C@@](O)(C(=O)OC)[C@H](OC(C)=O)[C@]5(CC)C=CCN6CC[C@]43[C@@H]65)C2)C1", "note": "[Vinblastine]", "values": [{"measurement": "total released content after 96 hr, Average", "setting": "[1]; Vinblastine, after 96 hr", "value": 136, "unit": "µg"}, {"measurement": "total released content after 96 hr, single determinations", "setting": "[1]; Vinblastine, after 96 hr", "value": "132 and μg and 140 μg"}]}
{"smiles": "CO[C@H]1C[C@@H]2CC[C@@H](C)[C@@](O)(O2)C(=O)C(=O)N2CCCC[C@H]2C(=O)O[C@H]([C@H](C)C[C@@H]2CC[C@@H](O)[C@H](OC)C2)CC(=O)[C@H](C)/C=C(\\C)[C@@H](O)[C@@H](OC)C(=O)[C@H](C)C[C@H](C)/C=C/C=C/C=C/1C", "note": "[rapamycin]", "values": [{"measurement": "healing of vessel wall injury caused by balloon angioplasty and stent implantation", "setting": "[2]", "value": "delays healing of vessel wall injury"}]}
{"smiles": "C=CC[C@@H]1/C=C(\\C)C[C@H](C)C[C@H](OC)[C@H]2O[C@@](O)(C(=O)C(=O)N3CCCC[C@H]3C(=O)O[C@H](/C(C)=C/[C@@H]3CC[C@@H](O)[C@H](OC)C3)[C@H](C)[C@@H](O)CC1=O)[C@H](C)C[C@@H]2OC", "note": "(relative stereo) [FK 506, [3S-[3R* [E(1S*, 3S*, 4S*)], 4S*, 5R*,-8S*, 9E, 12R*, 14R*, 15S*, 16R*, 18S*, 19S*, 26aR*]]-5,6,8,11,12, 13, 14, 15, 16, 17, 18, 19, 24, 25, 25, 26, 26a-hexadecahydro-5,19-dihydroxy-3-[2-(4-hydroxy-3-methoxycyclohexyl)-1-methylethenyl]-14,16-dimethoxy-4,10,12,18-tetramethyl-8-(2-propenyl)-15,19-epoxy-3H-pyrido[2,1-c] [1,4]oxaazacyclotricosine-1,7-20,21(4H,23H)-tetrone]", "values": [{"measurement": "reduction in the formation of neointima compared with bare stents", "setting": "[3]", "value": 53, "unit": "%"}, {"measurement": "concentrations with inhibitory effect on SMC proliferation", "setting": "[4]", "value": "300 to 500", "unit": "nM"}]}
{"smiles": "N.N.[Cl][Pt][Cl]", "note": "[Cisplatin]", "values": [{"measurement": "total released content after 24 hr, single determinations", "setting": "[1]; Cisplatin", "value": "12.4 µg and 12.2 µg and 16.1 µg and 15.9 µg and 10.9 µg and 11.1 µg"}, {"measurement": "amount of active agent loaded, Average", "setting": "[5]", "value": 14, "unit": "µg"}, {"measurement": "amount of active agent loaded, single stent, measured by AAS", "setting": "[5]; measured by AAS", "value": "15* μg and 14* μg"}]}
{"smiles": "CC(=O)O[C@H]1C(=O)[C@@]2(C)[C@H]([C@H](OC(=O)c3ccccc3)[C@]3(O)C[C@H](OC(=O)[C@H](O)[C@@H](NC(=O)c4ccccc4)c4ccccc4)C(C)=C1C3(C)C)[C@]1(OC(C)=O)CO[C@@H]1C[C@@H]2O", "note": "[Paclitaxel]", "values": [{"measurement": "neointima formation", "setting": "[6]", "value": "inhibit neointima formation"}, {"measurement": "total released content after 8 hr, single determinations", "setting": "[1]; Paclitaxel, after 8 hr", "value": "1.16 and μg and 1.21 μg and 0.89 and 0.94 μg and 1.42 and 1.25 μg"}, {"measurement": "total released content after 24 hr, single determinations", "setting": "[1]; Paclitaxel", "value": "2.44 and μg and 2.40 μg and 2.26 and 2.27 μg and 1.65 and 1.42 μg"}, {"measurement": "total released content after 96 hr, single determinations", "setting": "[1]; Paclitaxel, after 96 hr", "value": "2.79 and μg and 2.78 μg and 2.82 and 2.82 μg and 1.42 and 1.93 μg"}, {"measurement": "total released content after 192 hr, Average", "setting": "[1]; Paclitaxel, after 192 hr", "value": 2.23, "unit": "µg"}, {"measurement": "total released content after 192 hr, single determinations", "setting": "[1]; Paclitaxel, after 192 hr", "value": "2.22 µg and 2.24 µg"}, {"measurement": "amount of active agent loaded, Average", "setting": "[5]", "value": 144, "unit": "µg"}, {"measurement": "amount of active agent loaded, single stent", "setting": "[5]", "value": "128 µg and 155 µg and 148 µg"}, {"measurement": "duration of beneficial effect of coated stents", "setting": "[7]", "value": "beneficial effect has been observed to cease after 6 months"}]}
{"smiles": "O=C1c2c(O)ccc(O)c2C(=O)c2c(NCCNCCO)ccc(NCCNCCO)c21", "note": "[Mitoxantrone]", "values": [{"measurement": "amount of active agent loaded, Average", "setting": "[5]", "value": 124, "unit": "µg"}, {"measurement": "amount of active agent loaded, single stent", "setting": "[5]", "value": "116 µg and 142 µg and 113 µg"}]}
